According to paper PMC11003488 (Journal of Enzyme Inhibition and Medicinal Chemistry, 2023):
Read-outs that look alike come from different tables or passages of the source.

Experiments:
MCF7 = assay: NCI-60 SRB growth inhibition, one-dose and five-dose; assay type: cell-based; details: Homo sapiens
EKVX = assay: as above; assay type: cell-based; details: Homo sapiens
COLO 205 = assay: as above; assay type: cell-based; details: Homo sapiens
SR = assay: as above; assay type: cell-based; details: Homo sapiens
HOP-62 = assay: as above; assay type: cell-based; details: Homo sapiens
MDA-MB-468 = assay: as above; assay type: cell-based; details: Homo sapiens
SF-268 = assay: as above; assay type: cell-based; details: Homo sapiens
MALME-3M = assay: as above; assay type: cell-based; details: Homo sapiens
MOLT-4 = assay: as above; assay type: cell-based; details: Homo sapiens
OVCAR-5 = assay: as above; assay type: cell-based; details: Homo sapiens
T-47D = assay: as above; assay type: cell-based; details: Homo sapiens, T47D
SK-MEL-28 = assay: as above; assay type: cell-based; details: Homo sapiens
PC-3 = assay: as above; assay type: cell-based; details: Homo sapiens
HCC-2998 = assay: as above; assay type: cell-based; details: Homo sapiens
IGROV1 = assay: as above; assay type: cell-based; details: Homo sapiens
HOP-92 = assay: as above; assay type: cell-based; details: Homo sapiens
K-562 = assay: as above; assay type: cell-based; details: Homo sapiens
HCT-15 = assay: as above; assay type: cell-based; details: Homo sapiens
CAKI-1 = assay: as above; assay type: cell-based; details: Homo sapiens
OVCAR-3 = assay: as above; assay type: cell-based; details: Homo sapiens
RXF 393 = assay: as above; assay type: cell-based; details: Homo sapiens
OVCAR-8 = assay: as above; assay type: cell-based; details: Homo sapiens
U251 = assay: as above; assay type: cell-based; details: Homo sapiens
HL-60(TB) = assay: cells; assay type: cell-based; details: Homo sapiens
A498 = assay: NCI-60 SRB growth inhibition, one-dose and five-dose; assay type: cell-based; details: Homo sapiens
HS 578 T = assay: as above; assay type: cell-based; details: Homo sapiens
HCT-116 = assay: as above; assay type: cell-based; details: Homo sapiens
NCI-H522 = assay: as above; assay type: cell-based; details: Homo sapiens
DU-145 = assay: as above; assay type: cell-based; details: Homo sapiens
NCI-H226 = assay: as above; assay type: cell-based; details: Homo sapiens
OVCAR-4 = assay: as above; assay type: cell-based; details: Homo sapiens
SF-539 = assay: as above; assay type: cell-based; details: Homo sapiens
BT-549 = assay: as above; assay type: cell-based; details: Homo sapiens
LOX IMVI = assay: as above; assay type: cell-based; details: Homo sapiens
A549/ATCC = assay: as above; assay type: cell-based; details: Homo sapiens
SK-MEL-5 = assay: as above; assay type: cell-based; details: Homo sapiens
SK-MEL-2 = assay: as above; assay type: cell-based; details: Homo sapiens
CCRF-CEM = assay: as above; assay type: cell-based; details: Homo sapiens
[1] = system: NCI 60-cell line panel (full panel); assay: NCI-60 SRB growth inhibition, full panel mean / MG-MID; assay type: cell-based, human; details: for GI50: Homo sapiens, 60 cell
KM12 = assay: NCI-60 SRB growth inhibition, one-dose and five-dose; assay type: cell-based; details: Homo sapiens
SNB-19 = assay: as above; assay type: cell-based; details: Homo sapiens
MDA-MB-435 = assay: as above; assay type: cell-based; details: Homo sapiens
[2] = read-out: percent growth inhibition

SMILES: COc1ccc(CNc2cccc(C(=O)/C=C/c3ccc(NC(C)=O)cc3)c2)cc1OC [Compound 5h, (E)-N-(4–(3-(3-((3,4-dimethoxybenzyl)amino)phenyl)-3-oxoprop-1-en-1-yl)phenyl) acetamide]
- GI50 (MCF7; MCF7): 2.54 µM
- inhibition at 10 µM (MCF7; MCF7, read-out: percent growth inhibition): 119%
- GI50 (EKVX): 4.09 µM
- inhibition at 10 µM (EKVX; [2]): 94.9%
- GI50 (COLO 205; COLO 205): 9.39 µM
- inhibition at 10 µM (COLO 205; COLO 205, read-out: percent growth inhibition): 145%
- GI50 (SR): 1.93 µM
- inhibition at 10 µM (SR; [2]): 98.3%
- GI50 (HOP-62; HOP-62): 7.25 µM
- inhibition at 10 µM (HOP-62; HOP-62, read-out: percent growth inhibition): 62.3%
- GI50 (MDA-MB-468; MDA-MB-468): 2.44 µM
- inhibition at 10 µM (MDA-MB-468; MDA-MB-468, read-out: percent growth inhibition): 166%
- GI50 (SF-268; SF-268): 3.01 µM
- inhibition at 10 µM (SF-268; SF-268, read-out: percent growth inhibition): 64%
- GI50 (MALME-3M): 3.5 µM
- inhibition at 10 µM (MALME-3M; [2]): 151%
- GI50 (MOLT-4; MOLT-4): 2.68 µM
- inhibition at 10 µM (MOLT-4; MOLT-4, read-out: percent growth inhibition): 78.3%
- GI50 (OVCAR-5; OVCAR-5): 4.53 µM
- inhibition at 10 µM (OVCAR-5; OVCAR-5, read-out: percent growth inhibition): 84.1%
- GI50 (T-47D): 5.04 µM
- inhibition at 10 µM (T-47D; [2]): 104%
- GI50 (SK-MEL-28; SK-MEL-28): 2.82 µM
- inhibition at 10 µM (SK-MEL-28; SK-MEL-28, read-out: percent growth inhibition): 108%
- GI50 (PC-3; PC-3): 2.81 µM
- inhibition at 10 µM (PC-3; PC-3, read-out: percent growth inhibition): 85%
- GI50 (HCC-2998; HCC 2998): 3.3 µM
- inhibition at 10 µM (HCC-2998; HCC 2998, read-out: percent growth inhibition): 176%
- GI50 (IGROV1; IGROV-1): 4.54 µM
- inhibition at 10 µM (IGROV1; IGROV-1, read-out: percent growth inhibition): 96.8%
- GI50 (HOP-92; HOP-92): 4.02 µM
- inhibition at 10 µM (HOP-92; HOP-92, read-out: percent growth inhibition): 65.8%
- GI50 (K-562; K562): 2.5 µM
- inhibition at 10 µM (K-562; K562, read-out: percent growth inhibition): 92.2%
- GI50 (HCT-15; HCT-15): 1.8 µM
- inhibition at 10 µM (HCT-15; HCT-15, read-out: percent growth inhibition): 125%
- GI50 (CAKI-1; CAKI-1): 3.15 µM
- inhibition at 10 µM (CAKI-1; CAKI-1, read-out: percent growth inhibition): 56.4%
- GI50 (OVCAR-3; OVCAR-3): 2.28 µM
- inhibition at 10 µM (OVCAR-3; OVCAR-3, read-out: percent growth inhibition): 114%
- GI50 (RXF 393; RXF 393): 1.87 µM
- inhibition at 10 µM (RXF 393; RXF 393, read-out: percent growth inhibition): 132%
- GI50 (OVCAR-8; OVCAR-8): 2.97 µM
- inhibition at 10 µM (OVCAR-8; OVCAR-8, read-out: percent growth inhibition): 95.7%
- GI50 (U251; U-251): 2.88 µM
- inhibition at 10 µM (U251; U-251, read-out: percent growth inhibition): 150%
- GI50 (HL-60(TB); HL-60): 2.54 µM
- inhibition at 10 µM (HL-60(TB); HL-60, read-out: percent growth inhibition): 78.8%
- GI50 (A498; A498): 13.7 µM
- inhibition at 10 µM (A498; A498, read-out: percent growth inhibition): 11.5%
- GI50 (HS 578 T): 3.07 µM
- inhibition at 10 µM (HS 578 T; [2]): 99.1%
- GI50 (HCT-116; HCT-116, HCT-116 (colon cancer), five-dose assay): 1.95 µM
- GI50 (HCT-116; HCT-116, HCT-116, five-dose screening): 0.78 µM
- inhibition at 10 µM (HCT-116; HCT-116, read-out: percent growth inhibition): 174%
- GI50 (NCI-H522; NCI-H522): 8.85 µM
- inhibition at 10 µM (NCI-H522; NCI-H522, read-out: percent growth inhibition): 150%
- GI50 (DU-145; DU-145): 4.25 µM
- inhibition at 10 µM (DU-145; DU-145, read-out: percent growth inhibition): 75.4%
- GI50 (NCI-H226; NCI-H226): 12.4 µM
- inhibition at 10 µM (NCI-H226; NCI-H226, read-out: percent growth inhibition): 21.2%
- GI50 (OVCAR-4; OVCAR-4): 3.09 µM
- inhibition at 10 µM (OVCAR-4; OVCAR-4, read-out: percent growth inhibition): 89.4%
- GI50 (SF-539; SF-539): 2.31 µM
- inhibition at 10 µM (SF-539; SF-539, read-out: percent growth inhibition): 174%
- GI50 (BT-549; BT-549): 1.54 µM
- inhibition at 10 µM (BT-549; BT-549, read-out: percent growth inhibition): 126%
- GI50 (LOX IMVI): 1.8 µM
- inhibition at 10 µM (LOX IMVI; [2]): 181%
- GI50 (A549/ATCC; A549): 23.6 µM
- inhibition at 10 µM (A549/ATCC; A549, read-out: percent growth inhibition): 77.3%
- GI50 (SK-MEL-5; SK-MEL-5): 4.13 µM
- inhibition at 10 µM (SK-MEL-5; SK-MEL-5, read-out: percent growth inhibition): 126%
- GI50 (SK-MEL-2; SK-MEL-2): 10.6 µM
- inhibition at 10 µM (SK-MEL-2; SK-MEL-2, read-out: percent growth inhibition): 53.7%
- GI50 (CCRF-CEM): 2.74 µM
- inhibition at 10 µM (CCRF-CEM; [2]): 84.5%
- GI50 ([1]; read-out: Full panel GI50 mean): 4.48 µM
- GI50 ([1]; read-out: Full panel MG-MID GI50): 4.48 µM
- Full panel Mean GI % ([1]; mean over NCI-60 panel, single dose 10 µM): 108.5%
- GI50 (KM12; KM12): 1.94 µM
- inhibition at 10 µM (KM12; KM12, read-out: percent growth inhibition): 159%
- GI50 (SNB-19; SNB-19): 5.19 µM
- inhibition at 10 µM (SNB-19; SNB-19, read-out: percent growth inhibition): 56.9%
- GI50 (MDA-MB-435; MDA-MB-435): 2.22 µM
- inhibition at 10 µM (MDA-MB-435; MDA-MB-435, read-out: percent growth inhibition): 133%
